Results as given in US20230146455A1, “TREATMENT OF INFLAMMATORY DISEASES WITH PEPTIDES AND PHARMACEUTICAL COMPOSITIONS” (Yuyu Pharma, Inc., priority 2020, published 2023).
Several values for one entry are separate records, joined by “and”; a condition that tells them apart may be missing. Equal entries are not always repeated. Where a SMILES comes first, the peptide text is derived from it. [ ]: non-standard residue; d: D form. Hyp = O=C(O)[C@@H]1C[C@@H](O)CN1

Assays:
[1] = system: IFN-gamma; assay: Example 9 Luminex, LPS hPBMCs: IFN-gamma; type: cell-based, human
Protocol: (§1) Treatment Human PBMCs were pretreated with YY-101, YDE-011 and YDE-043 or reference compound; Xiidra® at various concentration (ranging from 1 nM to 100 uM) for 2 h before stimulation. An equal volume of 0.5% DMSO was used as a vehicle control. Then, the cells were treated with LPS at 5 ug/ml. The supernatants from treated cells were harvested at 24 h and placed in a 96 well for Luminex cytokine & chemokine profiling using a Luminex 200 multiplex assay (Luminex; R&D system, USA).
(§2) The main study arm with triplicate wells per group in a 24-well plate: • 1. Blank • 2. PBMC: 0.5% DMSO • 3. PBMC+LPS (5 ug/ml) • 4. PBMC+YY-101 100 uM • 5. PBMC+YY-101 10 uM • 6. PBMC+YY-101 1 uM • 7. PBMC+YY-101 0.1 uM • 8. PBMC+YY-101 0.01 uM • 9. PBMC+LPS (5 ug/ml)+Xiidra®100 uM • 10. PBMC+LPS (5 ug/ml)+Xiidra® 10 uM • 11. PBMC+LPS (5 ug/ml)+Xiidra® 1 uM • 12. PBMC+LPS (5 ug/ml)+Xiidra®0.1 uM • 13. PBMC+LPS (5 ug/ml)+Xiidra®0.01 uM • 14. PBMC+LPS (5 ug/ml)+Xiidra®0.001 uM • 15. PBMC+LPS (5 ug/ml)+YY-101 100 uM • 16. PBMC+LPS (5 ug/ml)+YY-101 10 uM • 17. PBMC+LPS (5 ug/ml)+YY-101 1 uM • 18. PBMC+LPS (5 ug/ml)+YY-101 0.1 uM • 19. PBMC+LPS (5 ug/ml)+YY-101 0.01 uM • 20. PBMC+LPS (5 ug/ml)+YY-101 0.001 uM • 21. PBMC+LPS (5 ug/ml)+YDE-011 100 uM • 22. PBMC+LPS (5 ug/ml)+YDE-011 10 uM • 23. PBMC+LPS (5 ug/ml)+YDE-011 1 uM • 24. PBMC+LPS (5 ug/ml)+YDE-011 0.1 uM • 25. PBMC+LPS (5 ug/ml)+YDE-011 0.01 uM • 26. PBMC+LPS (5 ug/ml)+YDE-011 0.001 uM • 27. PBMC+LPS (5 ug/ml)+YDE-043 100 uM • 28. PBMC+LPS (5 ug/ml)+YDE-043 10 uM • 29. PBMC+LPS (5 ug/ml)+YDE-043 1 uM • 30. PBMC+LPS (5 ug/ml)+YDE-043 0.1 uM • 31. PBMC+LPS (5 ug/ml)+YDE-043 0.01 uM • 32. PBMC+LPS (5 ug/ml)+YDE-043 0.001 uM
(§3) Multiplex assay was used to measure 30 cytokines and chemokines. The 1:2, 1:10 and 1:200 diluted cell supernatant and serial dilution of the standard were dispensed into a 96 well plate at 50 ul/well. Then, the pre-mixed cocktail of antibody-coated magnetic beads was dispensed at 50 ul/well and incubated at room temperature for 2 h in a horizontal orbital microplate shaker at 800±500 rpm. The beads were washed using a magnetic device to prevent loss. The biotin-antibody was dispensed in 50 ul of each well and incubated at room temperature for 1 h in a shaker at 800±500 rpm. After washing, streptavidin-PE was added at 50 ul/well and incubated at room temperature for 30 min in a shaker under the same conditions. Finally, after washing, wash buffer (100 ul/well) was added to the plate and incubated in a shaker for 2 min. The Luminex™ 200 setting were set according to the manufacturer's protocol. The data was calculated with a standard five-parameter logistic nonlinear regression analysis of the data (xPonent software 4.2, USA). The levels of cytokine/chemokine are normalized to the live cell counts (1×10^5 cells/mL) and presented as concentrations per mL (pg/mL or ng/mL).

[2] = system: Fas Ligand; assay: Example 9 Luminex, LPS hPBMCs: Fas Ligand; type: cell-based, human; conditions: for Fas Ligand Concentration / Fas Ligand conc/live cell / MFI, bead Fas Ligand: single replicates
Protocol: as §1, §2, §3

[3] = PBMC + LPS(5 ug/ml) + test article 0.001 uM, Mean
[4] = PBMC + LPS(5 ug/ml) + test article 0.001 uM, single replicates
[5] = PBMC + LPS(5 ug/ml) + test article 0.01 uM, Mean
[6] = PBMC + LPS(5 ug/ml) + test article 0.01 uM, single replicates
[7] = PBMC + LPS(5 ug/ml) + test article 0.1 uM, Mean
[8] = PBMC + LPS(5 ug/ml) + test article 0.1 uM, single replicates
[9] = PBMC + LPS(5 ug/ml) + test article 1 uM, Mean
[10] = PBMC + LPS(5 ug/ml) + test article 1 uM, single replicates
[11] = PBMC + LPS(5 ug/ml) + test article 10 uM, Mean
[12] = PBMC + LPS(5 ug/ml) + test article 10 uM, single replicates
[13] = PBMC + LPS(5 ug/ml) + test article 100 uM, Mean
[14] = PBMC + LPS(5 ug/ml) + test article 100 uM, single replicates
[15] = PBMC + LPS(5 ug/ml) + test article 0.001 uM
[16] = PBMC + LPS(5 ug/ml) + test article 0.01 uM
[17] = PBMC + LPS(5 ug/ml) + test article 0.1 uM
[18] = PBMC + LPS(5 ug/ml) + test article 1 uM
[19] = PBMC + LPS(5 ug/ml) + test article 10 uM
[20] = PBMC + LPS(5 ug/ml) + test article 100 uM

For `CC(C)C[C@H](NC(=O)CNC(=O)[C@H](CC(C)C)NC(=O)[C@H](CCC(N)=O)NC(=O)CNC(=O)[C@@H]1C[C@@H](O)CN1)C(=O)N[C@@H](C)C(=O)NCC(=O)N1CCC[C@H]1C(=O)N[C@@H](CCCCN)C(=O)O` [YDE-011] (H-[Hyp]GQLGLAGPK-OH), the “Concentration (IFN-gamma)” value [1, 3] was 773.0 pg/mL, the “conc/live cell (IFN-gamma)” value [1, 3] was 143.6 pg/10^5 and the “Concentration (IFN-gamma)” value [1, 4] was 624.6 pg/mL and 730.3 pg/mL and 964.1 pg/mL. The “conc/live cell (IFN-gamma)” value [1, 4] was 138.8 pg/10^5 and 125.9 pg/10^5 and 166.2 pg/10^5, the “Concentration (IFN-gamma)” value [1, 5] was 792.2 pg/mL and the “conc/live cell (IFN-gamma)” value [1, 5] was 135.8 pg/10^5. For the same compound, the “Concentration (IFN-gamma)” value [1, 6] was 773.0 pg/mL and 753.6 pg/mL and 849.9 pg/mL, the “conc/live cell (IFN-gamma)” value [1, 6] was 124.7 pg/10^5 and 147.8 pg/10^5 and 134.9 pg/10^5 and the “Concentration (IFN-gamma)” value [1, 7] was 812.6 pg/mL. For the same compound, the “conc/live cell (IFN-gamma)” value [1, 7] was 141.6 pg/10^5, the “Concentration (IFN-gamma)” value [1, 8] was 892.0 pg/mL and 753.6 pg/mL and 792.3 pg/mL and the “conc/live cell (IFN-gamma)” value [1, 8] was 135.1 pg/10^5 and 150.7 pg/10^5 and 139.0 pg/10^5. For the same compound, the “Concentration (IFN-gamma)” value [1, 9] was 987.2 pg/mL, the “conc/live cell (IFN-gamma)” value [1, 9] was 196.0 pg/10^5 and the “Concentration (IFN-gamma)” value [1, 10] was 1088.2 pg/mL and 909.1 pg/mL and 964.1 pg/mL. For the same compound, the “conc/live cell (IFN-gamma)” value [1, 10] was 197.9 pg/10^5 and 189.4 pg/10^5 and 200.9 pg/10^5, the “Concentration (IFN-gamma)” value [1, 11] was 841.5 pg/mL and the “conc/live cell (IFN-gamma)” value [1, 11] was 158.5 pg/10^5. The “Concentration (IFN-gamma)” value [1, 12] was 973.6 pg/mL and 861.4 pg/mL and 689.4 pg/mL, the “conc/live cell (IFN-gamma)” value [1, 12] was 180.3 pg/10^5 and 148.5 pg/10^5 and 146.7 pg/10^5 and the “Concentration (IFN-gamma)” value [1, 13] was 534.1 pg/mL. The “conc/live cell (IFN-gamma)” value [1, 13] was 88.0 pg/10^5, the “Concentration (IFN-gamma)” value [1, 14] was 604.8 pg/mL and 492.8 pg/mL and 504.9 pg/mL and the “conc/live cell (IFN-gamma)” value [1, 14] was 99.1 pg/10^5 and 80.8 pg/10^5 and 84.1 pg/10^5. The “Fas Ligand Concentration, Mean” value [2, 15] was 16.8 pg/mL, the “Fas Ligand conc/live cell, Mean” value [2, 15] was 3.2 pg/10^5 and the “MFI, bead Fas Ligand, Mean” value [2, 15] was 22.7. For the same compound, the “Fas Ligand Concentration” value [2, 15] was 15.7 pg/mL and 18.4 pg/mL and 16.4 pg/mL, the “Fas Ligand conc/live cell” value [2, 15] was 3.5 pg/10^5 and 3.2 pg/10^5 and 2.8 pg/10^5 and the “MFI, bead Fas Ligand” value [2, 15] was 21.0 and 25.0 and 22.0. The “Fas Ligand Concentration, Mean” value [2, 16] was 15.5 pg/mL, the “Fas Ligand conc/live cell, Mean” value [2, 16] was 2.7 pg/10^5 and the “MFI, bead Fas Ligand, Mean” value [2, 16] was 20.7. The “Fas Ligand Concentration” value [2, 16] was 17.1 pg/mL and 13.7 pg/mL and 15.7 pg/mL, the “Fas Ligand conc/live cell” value [2, 16] was 2.7 pg/10^5 and 2.2 pg/10^5 and 3.1 pg/10^5 and the “MFI, bead Fas Ligand” value [2, 16] was 23.0 and 18.0 and 21.0. The “Fas Ligand Concentration, Mean” value [2, 17] was 17.3 pg/mL, the “Fas Ligand conc/live cell, Mean” value [2, 17] was 3.0 pg/10^5 and the “MFI, bead Fas Ligand, Mean” value [2, 17] was 23.3. The “Fas Ligand Concentration” value [2, 17] was 19.1 pg/mL and 17.7 pg/mL and 15.0 pg/mL, the “Fas Ligand conc/live cell” value [2, 17] was 2.9 pg/10^5 and 3.5 pg/10^5 and 2.6 pg/10^5 and the “MFI, bead Fas Ligand” value [2, 17] was 26.0 and 24.0 and 20.0. For the same compound, the “Fas Ligand Concentration, Mean” value [2, 18] was 15.9 pg/mL, the “Fas Ligand conc/live cell, Mean” value [2, 18] was 3.2 pg/10^5 and the “MFI, bead Fas Ligand, Mean” value [2, 18] was 21.3. For the same compound, the “Fas Ligand Concentration” value [2, 18] was 17.4 pg/mL and 15.4 pg/mL and 15.0 pg/mL, the “Fas Ligand conc/live cell” value [2, 18] was 3.2 pg/10^5 (2×) and 3.1 pg/10^5 and the “MFI, bead Fas Ligand” value [2, 18] was 23.5 and 20.5 and 20.0. For the same compound, the “Fas Ligand Concentration, Mean” value [2, 19] was 17.3 pg/mL, the “Fas Ligand conc/live cell, Mean” value [2, 19] was 3.3 pg/10^5 and the “MFI, bead Fas Ligand, Mean” value [2, 19] was 23.3. For the same compound, the “Fas Ligand Concentration” value [2, 19] was 19.7 pg/mL and 17.7 pg/mL and 14.4 pg/mL, the “Fas Ligand conc/live cell” value [2, 19] was 3.7 pg/10^5 and 3.1 pg/10^5 (2×) and the “MFI, bead Fas Ligand” value [2, 19] was 27.0 and 24.0 and 19.0. For the same compound, the “Fas Ligand Concentration, Mean” value [2, 20] was 13.3 pg/mL, the “Fas Ligand conc/live cell, Mean” value [2, 20] was 2.2 pg/10^5 and the “MFI, bead Fas Ligand, Mean” value [2, 20] was 17.3. For the same compound, the “Fas Ligand Concentration” value [2, 20] was 11.7 pg/mL and 13.1 pg/mL and 15.0 pg/mL, the “Fas Ligand conc/live cell” value [2, 20] was 1.9 pg/10^5 and 2.1 pg/10^5 and 2.5 pg/10^5 and the “MFI, bead Fas Ligand” value [2, 20] was 15.0 and 17.0 and 20.0.
